Data on 37 compounds can be found in patent US20230109833A1, “METABOLICALLY STABLE N-ACYLAMINOOXADIAZOLES USEFUL AS ANTIBACTERIAL AGENTS” (MICROBIOTIX, INC., priority 2017, published 2023).

Each structure is given as a SMILES string. Converted amounts (≈) assume the structure as drawn. “Also recorded” adds a separate entry of the source. Read-outs that look alike come from different tables or passages of the source.

By MIC is commonly meant the lowest concentration found to suppress growth.

The test system of one data set is N. gonorrhoeae. Nature of the data set: MIC (Table 2B). The following applies: Neisseria gonorrhoeae, read-out: N. gonorrhoeae MIC. In kind it is cell-based.
A further data set relates to S. aureus. Nature of the data set: MIC (Table 2B). The class given is cell-based. The following applies: Staphylococcus aureus, strain not given.
In the next data set the test system is 36 mammalian receptors. The class given is binding. The following applies: 10 μM; every receptor of the panel.
A short description of data set [1]: Single dose PK (IV and PO). Conditions: mice, 10 mg/kg IV or IP, within 6 h, serum; 10 mg/kg. The class given is in vivo.

Take `CCC(c1ccccc1)c1nnc(NC(=O)c2ccc(Oc3ccccc3)nc2)o1` (stereo not shown) [compound 4804]: the MIC with N. gonorrhoeae (Table 2B, strain not given) worked out at 0.63 µg/mL (≈ 1.57 µM).

Take `O=C(Nc1nnc(-c2ccc(F)cc2)o1)c1ccc2c(c1)ncn2-c1ccccc1` [compound 4311]: the MIC in the data set with N. gonorrhoeae (Table 2B, strain not given) was found to be 2.49 µg/mL (≈ 6.23 µM). As to `COc1ccc(Oc2ccc(C(=O)Nc3nnc(-c4ccc(F)cc4)o3)cc2)cc1` [compound 4310], the MIC with N. gonorrhoeae (Table 2B, strain not given) is 0.05 µg/mL (≈ 0.123 µM); in the data set with S. aureus it was 0.631 µg/mL (≈ 1.56 µM). Taken in the same sequence, the figures for `Cc1ccc(Oc2ccc(C(=O)Nc3nnc(-c4ccc(F)cc4)o3)cc2)cc1` [compound 4305] were 0.048 µg/mL (≈ 0.123 µM) and 0.03 µg/mL (≈ 0.077 µM). In the case of `O=C(Nc1nnc(C2(O)CCCCC2)o1)c1ccc(Oc2ccccc2)nc1` [compound 5793], the MIC with N. gonorrhoeae (Table 2B, strain not given) came to 38 µg/mL (≈ 99.9 µM).

`O=C(Nc1nnc(-c2cccc(O)c2)o1)c1ccc(Oc2cccc(O)c2)cc1` [compound 6236]: the minimum inhibitory concentration (MIC) stood at 4.86 µg/mL (≈ 12.5 µM) in the data set with N. gonorrhoeae (Table 2B, strain not given) and 19.4 µg/mL (≈ 49.8 µM) with S. aureus. Take `O=C(Nc1nnc(C2CCCCC2)o1)c1ccc(OC2CCCCC2)nc1` [compound 4925]: in the data set on N. gonorrhoeae (Table 2B, strain not given), the MIC came to 0.14 µg/mL (≈ 0.378 µM). `O=C(Nc1nnc(-c2ccccc2O)o1)c1ccc(Oc2cccc(O)c2)cc1` [compound 6205]: the MIC is 0.3 µg/mL (≈ 0.77 µM) with N. gonorrhoeae (Table 2B, strain not given) and 1.71 µg/mL (≈ 4.39 µM) against S. aureus. Taken in the same sequence, the figures for `O=C(Nc1nnc(-c2cc(F)ccc2O)o1)c1ccc(Oc2cccc(O)c2)cc1` [compound 6977] were 0.21 µg/mL (≈ 0.516 µM) and 0.6 µg/mL (≈ 1.47 µM). On to `O=C(Nc1nnc(-c2ccc(F)cc2)o1)c1ccc(Oc2ccccc2)nc1` [compound 4237, 2-(6-phenoxynicotinamido)-5-(4-fluorophenyl)-1,3,4-oxadiazole], for which the “inhibition of the 36 mammalian receptors” value in the data set with 36 mammalian receptors is listed as under 50%. For `O=C(Nc1nnc(C2CCCC2)o1)c1ccc(Oc2ccccc2)nc1` [compound 4470], the MIC in the data set on N. gonorrhoeae (Table 2B, strain not given) came out at 0.35 µg/mL (≈ 0.999 µM); with S. aureus, 4.37 µg/mL (≈ 12.5 µM). For the compound `O=C(Nc1nnc(-c2ccc(F)cc2)o1)c1ccc(OC2CCCC2)cc1` [compound 4293], in the data set on S. aureus, the MIC amounted to 0.28 µg/mL (≈ 0.762 µM). For `O=C(Nc1nnc(-c2ccccc2O)o1)c1ccc(Oc2ccccc2)nc1` [5939A], the MIC with N. gonorrhoeae (Table 2B, strain not given) amounted to 0.82 µg/mL (≈ 2.19 µM); against S. aureus, 1.4 µg/mL (≈ 3.74 µM).

Regarding `Cc1cccc(Oc2ccc(C(=O)Nc3nnc(-c4ccc(F)cc4)o3)cc2)c1` [compound 4306], the minimum inhibitory concentration (MIC) is 0.048 µg/mL (≈ 0.123 µM) in the data set with N. gonorrhoeae (Table 2B, strain not given) and 0.03 µg/mL (≈ 0.077 µM) in the data set on S. aureus.

`COc1cccc(Oc2ccc(C(=O)Nc3nnc(-c4ccc(F)cc4)o3)cc2)c1` [compound 4309]: the MIC with N. gonorrhoeae (Table 2B, strain not given) was found to be 0.1 µg/mL (≈ 0.247 µM); with S. aureus it was 0.63 µg/mL (≈ 1.55 µM). For the compound `O=C(Nc1nnc(C2COc3ccccc3O2)o1)c1ccc(Oc2ccccc2)nc1` (stereo not shown) [compound 4770], the MIC in the data set on N. gonorrhoeae (Table 2B, strain not given) was determined as 3.33 µg/mL (≈ 8 µM); against S. aureus, 7.36 µg/mL (≈ 17.7 µM). For `CN(C(=O)c1ccc(Cl)cc1)c1nnc(-c2ccc(F)cc2)o1` [compound 4076], the MIC stood at 2.07 µg/mL (≈ 6.24 µM) in the data set on N. gonorrhoeae (Table 2B, strain not given) and 8.27 µg/mL (≈ 24.9 µM) against S. aureus.

In the case of `Cc1cccc(-c2nnc(NC(=O)c3ccc(Oc4ccccc4)nc3)o2)c1` [compound 4499], the MIC with N. gonorrhoeae (Table 2B, strain not given) worked out at 0.18 µg/mL (≈ 0.483 µM); against S. aureus it was 0.92 µg/mL (≈ 2.47 µM).

As to `CC(Oc1ccc(C(=O)Nc2nnc(-c3ccc(F)cc3)o2)cc1)c1ccccc1` (stereo not shown) [compound 4357], the MIC in the data set on N. gonorrhoeae (Table 2B, strain not given) amounted to 0.2 µg/mL (≈ 0.496 µM). Take `O=C(Nc1nnc(C2CC3CCC2C3)o1)c1ccc(OC2CCN(CC(F)(F)F)CC2)cc1` (stereo not shown) [compound 6211]: the MIC with N. gonorrhoeae (Table 2B, strain not given) is 1.29 µg/mL (≈ 2.78 µM); in the data set with S. aureus, 5.8 µg/mL (≈ 12.5 µM).

As to `O=C(Nc1nnc(-c2ccc(F)cc2)o1)c1ccc(Oc2cccc(O)c2)cc1` [compound 4304], the MIC came to 0.39 µg/mL (≈ 0.997 µM) in the data set with N. gonorrhoeae (Table 2B, strain not given) and 3.07 µg/mL (≈ 7.84 µM) in the data set on S. aureus.

In the case of `O=C(Nc1nnc(-c2ccc(F)cc2)o1)c1ccc(Cl)cc1` [KKL-35], the “detectable material after dosing (preliminary PK)” value in data set [1] is listed as “no detectable material; also recorded: undetectable”. Turning to `O=C(Nc1nnc(-c2ccc(F)cc2)o1)c1ccc(N2CCC2)cc1` [compound 5910], the minimum inhibitory concentration (MIC) in the data set with N. gonorrhoeae (Table 2B, strain not given) was determined as 4.23 µg/mL (≈ 12.5 µM); against S. aureus it was 18.9 µg/mL (≈ 55.9 µM). As for `Cc1ccccc1Oc1ccc(C(=O)Nc2nnc(-c3ccc(F)cc3)o2)cc1` [compound 4307], the minimum inhibitory concentration (MIC) in the data set with N. gonorrhoeae (Table 2B, strain not given) turned out to be 0.09 µg/mL (≈ 0.231 µM); in the data set with S. aureus it was 0.61 µg/mL (≈ 1.57 µM).

Turning to `Cc1cncc(Oc2ccc(C(=O)Nc3nnc(C4CC5CCC4C5)o3)cc2)n1` (stereo not shown) [compound 6282], the minimal inhibitory concentration (MIC) came to 1.37 µg/mL (≈ 3.5 µM) in the data set on N. gonorrhoeae (Table 2B, strain not given) and 6.9 µg/mL (≈ 17.6 µM) in the data set on S. aureus. As for `O=C(Nc1nnc(-c2ccc(F)cc2)o1)c1ccc(Cl)s1` [compound 3653], the minimal inhibitory concentration (MIC) in the data set with N. gonorrhoeae (Table 2B, strain not given) was found to be 0.32 µg/mL (≈ 0.988 µM). As for `Cc1ccc(C(=O)Nc2nnc(-c3ccc(N4CCC4)cc3)o2)cc1C` [3999A], the MIC in the data set on N. gonorrhoeae (Table 2B, strain not given) was 0.087 µg/mL (≈ 0.25 µM); with S. aureus it was 0.68 µg/mL (≈ 1.95 µM). As to `O=C(Nc1nnc(C2CCCCC2)o1)c1ccc(Oc2cccc(O)c2)cc1` [compound 4801], the MIC with N. gonorrhoeae (Table 2B, strain not given) was 0.19 µg/mL (≈ 0.501 µM); in the data set with S. aureus, 2.98 µg/mL (≈ 7.85 µM). For `O=C(Nc1nnc(-c2cccc(F)c2O)o1)c1ccc(Oc2cccc(O)c2)cc1` [compound 6976], the MIC with N. gonorrhoeae (Table 2B, strain not given) came out at 1.91 µg/mL (≈ 4.69 µM); against S. aureus it was 2.5 µg/mL (≈ 6.14 µM). On to `O=C(Nc1nnc(-c2ccc(F)cc2)o1)c1ccc(S(=O)(=O)c2ccccc2)cc1` [compound 4257], for which 2.64 µg/mL (≈ 6.23 µM) was the least that counted as inhibitory against S. aureus (MIC).

Turning to `N#Cc1nnc(NC(=O)c2ccc(Oc3ccccc3)nc2)o1` [compound 5834], the MIC in the data set with N. gonorrhoeae (Table 2B, strain not given) came out at 20.3 µg/mL (≈ 66.1 µM). Take `Cc1cc(C)cc(Oc2ccc(C(=O)Nc3nnc(-c4ccc(F)cc4)o3)cc2)c1` [compound 4308]: the minimum inhibitory concentration (MIC) turned out to be 0.079 µg/mL (≈ 0.196 µM) in the data set on N. gonorrhoeae (Table 2B, strain not given) and 0.314 µg/mL (≈ 0.778 µM) against S. aureus. As for `O=C(Nc1nnc(C2CCCCC2)o1)c1ccc(Oc2ccccc2)nc1` [compound 4780], the MIC turned out to be 0.36 µg/mL (≈ 0.988 µM) in the data set on N. gonorrhoeae (Table 2B, strain not given) and 3.61 µg/mL (≈ 9.91 µM) with S. aureus. Take `O=C(Nc1nnc(Cc2ccc(F)cc2)o1)c1ccc(Oc2ccccc2)nc1` [compound 4802]: the MIC with N. gonorrhoeae (Table 2B, strain not given) was found to be 1.56 µg/mL (≈ 4 µM). Turning to `O=C(Nc1nnc(C2CC3CCC2C3)o1)c1ccc(Oc2ccccc2)nc1` (stereo not shown) [compound 5246], the MIC with N. gonorrhoeae (Table 2B, strain not given) was 0.16 µg/mL (≈ 0.425 µM); with S. aureus it was 4.71 µg/mL (≈ 12.5 µM).

As to `Nc1ccc(C(=O)Nc2nnc(-c3ccc(F)cc3)o2)cc1` [compound 5804], the MIC in the data set on N. gonorrhoeae was determined as 18.8 µg/mL (≈ 63 µM). Consider `COc1c(F)cccc1-c1nnc(NC(=O)c2ccc(Oc3cncc(C)n3)cc2)o1` [compound 6983], for which the MIC worked out at 9.7 µg/mL (≈ 23 µM) in the data set with N. gonorrhoeae (Table 2B, strain not given) and 21.1 µg/mL (≈ 50.1 µM) in the data set with S. aureus.
